# From patent US20180168157A1, “ANTIMICROBIAL COMPOSITIONS COMPRISING FOOD APPROVED ANTIMICROBIALS AND ZINC PYRITHIONE” (Janssen Pharmaceutica NV, priority 2015, published 2018)
# Key:
# Format in all cases: cell-based
# [1] = tested on: Saccharomyces cerevisiae CBS 8803; experiment: Poison plate assay (MIC and synergy index), Saccharomyces cerevisiae; details: ppm total active ingredient, half strength potato dextrose broth, 28° C., evaluation 7 days after inoculation
# Text: wherein: • QA is the concentration of compound A in ppm, acting alone, which produced an end point (e.g. MIC), • Qa is the concentration of compound A in ppm, in the mixture, which produced an end point (e.g. MIC), • QB is the concentration of compound B in ppm, acting alone, which produced an end point (e.g. MIC), • Qb is the concentration of compound B in ppm, in the mixture, which produced an end point (e.g. MIC).
# When the Synergy Index is greater than 1.0, antagonism is indicated. When the SI is equal to 1.0, additivity is indicated.
# [2] = tested on: Escherichia coli LMG 8063; experiment: Poison plate assay (MIC and synergy index), Escherichia coli; details: ppm total active ingredient, nutrient broth pH 6.8, 28° C., evaluation 7 days after inoculation
# Text: (§1) Experiment 1: Poison Plate Assay
# (§2) In the test combinations above, product A is component (I), i.e. zinc pyrithione, and product B is a component (II), i.e. either sodium sulfite (II-a) or lysozyme (II-b).
# (§3) Concentration series of total actives: a series of 24 concentrations increasing with steps of ⅓:0.27-0.35-0.47-0.63-0.84-1.13-1.50-2.00-2.67-3.56-4.75-6.33-8.44-11.25-15.00-20.00-26.70-35.60-47.46-63.28-84.38-112.50-150.00-200.00 ppm. • Culture medium: bacteria: nutrient broth (3 g beef extract and 5 g peptone in 1 liter deionised water, pH=6.8.) • Experimental set up: 96-well plates containing 300 μl pf inoculum plus 0.75 μl of a 400× concentrated stock solution of the test compounds per well. • Species of test organisms: Escherichia coli LMG 8063 • Staphylococcus aureus LMG 8195/ATCC 6538P • Inoculum: the nutrient medium is inoculated with an actively growing liquid culture of the test bacteria. • Culture conditions: 28° C., 70% relative humidity, incubation in darkness. • Evaluation: 7 days after inoculation. […]
# [3] = tested on: Staphylococcus aureus LMG 8195/ATCC 6538P; experiment: Poison plate assay (MIC and synergy index), Staphylococcus aureus; details: ppm total active ingredient, nutrient broth pH 6.8, 28° C., evaluation 7 days after inoculation
# Text: as §1, §2, §3
Compound,MIC-values in ppm (minimum inhibitory concentration) [1],MIC-values in ppm (minimum inhibitory concentration) [2],MIC-values in ppm (minimum inhibitory concentration) [3]
O=S([O-])O.[Na+] [sodium bisulfite],267 ppm,,
O=S([O-])[O-].[Na+].[Na+] [sodium sulfite],,267 ppm,
"[O-][n+]1ccccc1[S][Zn][S]c1cccc[n+]1[O-] [zinc pyrithione, bis(2-pyridylthio)zinc 1,1′dioxide]",2.00 ppm,3.60 ppm,2.00 ppm
lysozyme,,,267 ppm
